Consider 1 substance from PMC11739599 (Nature Communications, 2025).

Among the targets are RSK4 (Homo sapiens, UniProt Q9UK32); RSK2 (Homo sapiens, UniProt P51812); RSK3 (Homo sapiens, UniProt Q15349).
What all share (test): KINOMEscan panel
What all share (assay type): biochemical

Experiment [1] concerns the target RSK1 (ribosomal protein S6 kinase A1) (Homo sapiens, UniProt Q15418).

Sequence of RSK1 (ribosomal protein S6 kinase A1) (Q15418 whole entry): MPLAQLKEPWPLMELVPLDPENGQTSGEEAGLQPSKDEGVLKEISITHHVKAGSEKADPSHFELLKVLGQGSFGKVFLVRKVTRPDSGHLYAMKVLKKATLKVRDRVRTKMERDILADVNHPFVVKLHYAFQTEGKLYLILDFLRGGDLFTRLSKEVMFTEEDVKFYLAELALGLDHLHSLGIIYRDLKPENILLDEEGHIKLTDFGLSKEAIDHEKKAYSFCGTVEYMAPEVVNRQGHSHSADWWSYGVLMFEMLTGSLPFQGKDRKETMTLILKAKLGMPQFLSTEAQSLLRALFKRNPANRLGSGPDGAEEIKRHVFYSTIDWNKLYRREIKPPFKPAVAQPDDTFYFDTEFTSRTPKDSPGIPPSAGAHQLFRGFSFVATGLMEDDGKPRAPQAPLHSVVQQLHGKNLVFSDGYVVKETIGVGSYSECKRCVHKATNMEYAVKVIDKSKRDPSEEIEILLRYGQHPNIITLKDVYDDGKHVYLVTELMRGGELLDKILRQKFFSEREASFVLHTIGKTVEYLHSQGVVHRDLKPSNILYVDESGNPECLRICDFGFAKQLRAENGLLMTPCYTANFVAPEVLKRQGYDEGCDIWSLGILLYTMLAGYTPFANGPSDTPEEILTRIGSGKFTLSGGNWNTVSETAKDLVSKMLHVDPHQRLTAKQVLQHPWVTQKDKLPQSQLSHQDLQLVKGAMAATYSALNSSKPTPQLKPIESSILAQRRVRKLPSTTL
Sequence of RSK3 (Q15349 whole entry): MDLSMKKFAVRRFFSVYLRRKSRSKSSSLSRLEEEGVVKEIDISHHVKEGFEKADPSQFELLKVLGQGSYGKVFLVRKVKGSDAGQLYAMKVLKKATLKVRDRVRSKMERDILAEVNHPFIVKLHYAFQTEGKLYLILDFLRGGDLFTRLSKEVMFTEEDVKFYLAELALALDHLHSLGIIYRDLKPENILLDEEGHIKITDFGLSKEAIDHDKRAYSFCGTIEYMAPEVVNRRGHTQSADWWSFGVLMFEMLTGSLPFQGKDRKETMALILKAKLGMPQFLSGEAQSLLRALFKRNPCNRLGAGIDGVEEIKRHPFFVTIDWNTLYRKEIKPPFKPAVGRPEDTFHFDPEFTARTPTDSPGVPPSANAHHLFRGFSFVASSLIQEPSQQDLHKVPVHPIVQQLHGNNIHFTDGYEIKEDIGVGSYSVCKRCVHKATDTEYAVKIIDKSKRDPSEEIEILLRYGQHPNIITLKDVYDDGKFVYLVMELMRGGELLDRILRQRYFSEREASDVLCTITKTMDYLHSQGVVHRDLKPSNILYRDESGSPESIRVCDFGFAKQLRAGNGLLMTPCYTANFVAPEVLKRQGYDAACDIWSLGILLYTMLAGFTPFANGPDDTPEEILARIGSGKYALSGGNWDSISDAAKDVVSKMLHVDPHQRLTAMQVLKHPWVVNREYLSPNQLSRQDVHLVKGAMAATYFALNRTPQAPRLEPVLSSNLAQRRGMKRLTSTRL
Sequence of RSK4 (Q9UK32 whole entry): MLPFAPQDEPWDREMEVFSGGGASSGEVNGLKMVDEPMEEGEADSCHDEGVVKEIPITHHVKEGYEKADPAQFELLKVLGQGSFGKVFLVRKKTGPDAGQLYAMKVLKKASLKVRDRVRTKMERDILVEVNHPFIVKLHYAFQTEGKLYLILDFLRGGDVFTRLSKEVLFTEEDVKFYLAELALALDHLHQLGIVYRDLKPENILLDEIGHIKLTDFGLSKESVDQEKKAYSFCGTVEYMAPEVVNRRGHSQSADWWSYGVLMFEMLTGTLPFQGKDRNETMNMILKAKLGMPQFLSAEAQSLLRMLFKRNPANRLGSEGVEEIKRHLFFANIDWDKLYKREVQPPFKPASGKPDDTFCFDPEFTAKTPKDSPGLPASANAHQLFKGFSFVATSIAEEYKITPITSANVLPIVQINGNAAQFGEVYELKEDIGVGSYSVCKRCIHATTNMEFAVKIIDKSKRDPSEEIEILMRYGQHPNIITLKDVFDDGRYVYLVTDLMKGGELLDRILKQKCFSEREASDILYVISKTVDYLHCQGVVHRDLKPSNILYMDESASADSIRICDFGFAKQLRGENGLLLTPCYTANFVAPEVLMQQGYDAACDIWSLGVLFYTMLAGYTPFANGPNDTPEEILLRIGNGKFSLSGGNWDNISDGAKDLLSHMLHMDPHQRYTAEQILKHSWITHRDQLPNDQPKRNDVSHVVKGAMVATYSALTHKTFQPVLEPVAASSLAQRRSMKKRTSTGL
Sequence of RSK2 (P51812 whole entry): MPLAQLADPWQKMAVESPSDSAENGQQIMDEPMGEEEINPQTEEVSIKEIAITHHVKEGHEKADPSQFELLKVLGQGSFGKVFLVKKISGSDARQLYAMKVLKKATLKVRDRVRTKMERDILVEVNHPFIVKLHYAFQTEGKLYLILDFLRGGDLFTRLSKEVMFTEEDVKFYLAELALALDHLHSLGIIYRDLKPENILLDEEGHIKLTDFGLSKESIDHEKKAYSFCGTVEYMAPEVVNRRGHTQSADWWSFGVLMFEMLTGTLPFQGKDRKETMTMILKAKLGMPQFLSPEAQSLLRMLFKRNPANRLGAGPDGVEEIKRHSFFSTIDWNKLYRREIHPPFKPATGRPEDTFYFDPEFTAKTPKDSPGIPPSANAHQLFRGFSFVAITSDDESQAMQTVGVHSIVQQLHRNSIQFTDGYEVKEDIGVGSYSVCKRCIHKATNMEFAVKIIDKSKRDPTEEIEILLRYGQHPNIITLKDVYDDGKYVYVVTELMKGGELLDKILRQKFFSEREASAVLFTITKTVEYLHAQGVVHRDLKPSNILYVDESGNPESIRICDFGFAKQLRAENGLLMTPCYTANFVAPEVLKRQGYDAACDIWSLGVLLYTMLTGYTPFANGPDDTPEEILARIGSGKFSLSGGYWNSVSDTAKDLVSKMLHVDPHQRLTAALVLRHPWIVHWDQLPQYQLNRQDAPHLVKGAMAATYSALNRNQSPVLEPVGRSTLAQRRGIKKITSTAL

For PMD-026, the IC50 was determined as 2 nM against RSK4, 0.7 nM at RSK2, 2 nM in experiment [1] and 0.9 nM on RSK3.
